Key:
[1] = biological target: T1, Calcium-activated potassium channel subunit alpha-1 (Homo sapiens, UniProt Q12791); assay: [86Rb+] efflux induced by BKca alpha subunits expressed in HEK293 cells at 10 uM; assay type: cell-based
[2] = biological target: T1, Calcium-activated potassium channel subunit alpha-1; assay: BKca channel opening activity in HEK293 cells stably transfected with BKca alpha subunits at 10 uM concentration using a [86Rb+] efflux assay; assay type: cell-based
[3] = organism: Sus scrofa; assay: In vitro maximal efficacy in stable twitch response in isolated Landrace pig bladder detrusor strips relative to P-1075
[4] = organism: Sus scrofa; assay: In vitro concentration to suppress electrically stimulated contraction in isolated Landrance pig bladder detrusor strips; assay type: functional
[5] = biological target: T1, Calcium-activated potassium channel subunit alpha-1; assay: BKca opening activity as outward current at 10 uM in HEK293 cells; assay type: cell-based

T1 sequence (Q12791 whole entry): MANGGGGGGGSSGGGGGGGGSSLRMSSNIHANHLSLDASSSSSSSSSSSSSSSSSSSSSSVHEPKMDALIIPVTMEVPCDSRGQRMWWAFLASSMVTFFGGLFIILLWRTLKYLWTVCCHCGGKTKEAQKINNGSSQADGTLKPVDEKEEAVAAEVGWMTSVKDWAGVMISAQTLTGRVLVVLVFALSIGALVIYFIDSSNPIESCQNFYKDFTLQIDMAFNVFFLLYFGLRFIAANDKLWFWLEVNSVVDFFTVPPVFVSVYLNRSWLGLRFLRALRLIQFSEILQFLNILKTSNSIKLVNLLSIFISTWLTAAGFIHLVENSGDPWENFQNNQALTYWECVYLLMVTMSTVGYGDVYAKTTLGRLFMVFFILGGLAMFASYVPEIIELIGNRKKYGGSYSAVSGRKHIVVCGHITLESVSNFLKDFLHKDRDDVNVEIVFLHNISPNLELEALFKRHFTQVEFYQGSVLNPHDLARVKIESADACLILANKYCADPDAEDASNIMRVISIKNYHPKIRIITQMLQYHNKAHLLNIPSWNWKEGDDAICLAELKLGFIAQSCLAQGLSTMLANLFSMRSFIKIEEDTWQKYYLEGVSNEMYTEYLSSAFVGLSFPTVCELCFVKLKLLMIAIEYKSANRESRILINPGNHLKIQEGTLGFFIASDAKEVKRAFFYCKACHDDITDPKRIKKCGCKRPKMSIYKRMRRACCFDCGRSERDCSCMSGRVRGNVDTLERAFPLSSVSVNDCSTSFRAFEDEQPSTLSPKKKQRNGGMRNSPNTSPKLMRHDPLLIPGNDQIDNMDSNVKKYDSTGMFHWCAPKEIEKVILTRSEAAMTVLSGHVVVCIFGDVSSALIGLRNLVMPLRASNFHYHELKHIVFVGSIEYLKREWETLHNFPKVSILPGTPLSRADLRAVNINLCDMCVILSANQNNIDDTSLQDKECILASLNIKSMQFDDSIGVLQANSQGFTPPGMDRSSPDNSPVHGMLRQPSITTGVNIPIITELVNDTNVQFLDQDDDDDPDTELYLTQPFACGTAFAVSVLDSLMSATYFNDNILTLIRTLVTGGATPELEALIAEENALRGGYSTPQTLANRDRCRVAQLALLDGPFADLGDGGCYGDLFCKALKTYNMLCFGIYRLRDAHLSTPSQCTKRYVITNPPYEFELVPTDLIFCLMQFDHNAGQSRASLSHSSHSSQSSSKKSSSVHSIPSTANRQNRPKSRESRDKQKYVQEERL

Compound | EC50 [1] | Response [2] [%] | Efficacy [3] [%] | EC50 [4] [µM] | Activity [5] [%] | Response [5] [%]
CN1CCN(c2[nH]c3cccnc3c2C#N)CC1 | Not Active | 0 | – | – | – | –
N#Cc1c(N2CCCCCCC2)[nH]c2cccnc12 | Not Active | 0 | – | – | – | –
CN(C)CCN(C)c1[nH]c2cccnc2c1C#N | 6.75 µM | 63 | – | – | – | –
N#Cc1c(NCc2ccccc2)[nH]c2cccnc12 | Not Active | 0 | – | – | – | –
COC(=O)C1CCN(c2[nH]c3cccnc3c2C#N)CC1 | 17 µM | 55 | – | – | – | –
CN1CCCN(c2[nH]c3cccnc3c2C#N)CC1 | Not Active | 0 | – | – | – | –
CCN(CC)c1[nH]c2cccnc2c1C#N | 6.94 µM | 57 | – | – | – | –
N#Cc1c(N2CCC3CCCCC3C2)[nH]c2cccnc12 (stereo unspecified) | Not Active | 0 | – | – | – | –
Cc1c(-c2ccccc2F)[nH]c(N)c1C#N | – | – | 93 | 63.1 | – | 21.7
N#Cc1c(N2CC3CCC(CC3)C2)[nH]c2cccnc12 | 4.43 µM | 74 | – | – | – | –
CCCN(CCO)c1[nH]c2cccnc2c1C#N | Not Active | 0 | – | – | – | –

Continued, values first:

EC50 [1] | Response [2] [%] | Efficacy [3] [%] | EC50 [4] [µM] | Activity [5] [%] | Response [5] [%] | Compound
Not Active | 0 | – | – | – | – | N#Cc1c(N2CC[C@@H](O)C2)[nH]c2cccnc12
5.86 µM | 62 | – | – | – | – | N#Cc1c(-n2ccnc2)[nH]c2cccnc12
Not Active | 3.02 | 67 | 24.8 | – | – | N#Cc1c(N2CCCCC2)[nH]c2cccnc12
15.1 µM | 28 | – | – | – | – | N#Cc1c(N2CCC(O)CC2)[nH]c2cccnc12
3.34 µM | 61 | 63 | 25.9 | 105 | – | N#Cc1c(N2CCCCCC2)[nH]c2cccnc12
Not Active | 0 | – | – | – | – | C[C@@H]1CC[C@@H](C)N1c1[nH]c2cccnc2c1C#N
13.4 µM | 65 | – | – | – | – | N#Cc1c(O)[nH]c2cccnc12
5.07 µM | 65 | 31 | 9.26 | 108 | – | N#Cc1c(N2CCC[C@H](O)C2)[nH]c2cccnc12
3.86 µM | 62 | – | – | – | – | N#Cc1c(N2CCOCC2)[nH]c2cccnc12
Not Active | 0 | – | – | – | – | N#Cc1c(Cl)[nH]c2cccnc12
Not Active | 0 | – | – | – | – | N#Cc1c(N2CCC[C@H]2CO)[nH]c2cccnc12
8.12 µM | 58 | – | – | – | – | N#Cc1c(N2CCCC2)[nH]c2cccnc12
Not Active | 0 | – | – | – | – | N#Cc1c(Nc2ccccc2)[nH]c2cccnc12
Not Active | 0 | – | – | – | – | N#Cc1c(N2CCC[C@@H]2CO)[nH]c2cccnc12
5.13 µM | 60 | 58 | 23.5 | 75.5 | – | CN(C)c1[nH]c2cccnc2c1C#N
Not Active | 0 | – | – | – | – | N#Cc1c(N2CC=CC2)[nH]c2cccnc12

Reference: ChEMBL document CHEMBL1136537, “The discovery of a new class of large-conductance Ca2+-activated K+ channel opener targeted for overactive bladder: synthesis and structure-activity relationships of 2-amino-4-azaindoles” (Bioorg Med Chem Lett, 2003)
